Assays:
[1] = molecular target: T1, CD44 on the surface of endothelial cells at arterial vulnerable plaques (Mus musculus, UniProt P15379); test: Binding force integration of amino fluorescein labelled ligand/antibody, flow cytometry MFI, endothelial cells; design: species or system mice; conditions: normal cells set to 1; labelled ligand/antibody 10 mg/ml, 30 minutes, 37° C.
T1 construct: from tissue; host or cells: endothelial cells from arterial vulnerable plaques of model mice
T1 sequence (P15379 23-778): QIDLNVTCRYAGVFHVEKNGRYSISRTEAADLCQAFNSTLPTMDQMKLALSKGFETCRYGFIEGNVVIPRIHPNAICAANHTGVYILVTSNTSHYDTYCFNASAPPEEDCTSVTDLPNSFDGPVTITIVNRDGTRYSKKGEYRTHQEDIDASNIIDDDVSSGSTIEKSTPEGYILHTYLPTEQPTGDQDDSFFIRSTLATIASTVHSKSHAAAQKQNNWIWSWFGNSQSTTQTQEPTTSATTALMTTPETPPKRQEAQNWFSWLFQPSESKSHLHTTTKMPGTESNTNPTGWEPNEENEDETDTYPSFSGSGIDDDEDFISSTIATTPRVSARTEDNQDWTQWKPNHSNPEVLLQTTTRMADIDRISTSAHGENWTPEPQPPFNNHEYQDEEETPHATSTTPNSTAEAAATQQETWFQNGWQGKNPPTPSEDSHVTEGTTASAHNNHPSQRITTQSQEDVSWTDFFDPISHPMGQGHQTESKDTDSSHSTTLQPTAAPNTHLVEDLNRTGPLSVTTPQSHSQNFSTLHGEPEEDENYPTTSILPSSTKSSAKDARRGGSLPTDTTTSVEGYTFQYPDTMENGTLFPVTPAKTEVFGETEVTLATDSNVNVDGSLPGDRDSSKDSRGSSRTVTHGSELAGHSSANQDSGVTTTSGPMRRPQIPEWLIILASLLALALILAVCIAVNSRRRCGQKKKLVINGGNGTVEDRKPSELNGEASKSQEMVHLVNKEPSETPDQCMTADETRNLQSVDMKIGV
Method: Endothelial cells at normal arterial vessel walls and endothelial cells at arterial vulnerable plaques of model mice were taken, and the ligand/antibody labeled with amino fluorescein at a concentration of 10 mg/ml was added, the sample was cultured in Dulberic modified Eagle's medium (DMEM) (containing calf serum with a volume fraction of 10%, 100 U/ml penicillin, 100 U/ml streptomycin) at 37° C., in 5% CO2 incubator. After 30 minutes, the mean fluorescence intensity (MFI) was determined by flow cytometry (CytoFLEX, Beckman Coulter, U.S.A.), and the binding force integration of FL-ligand/antibody on the surface of both cells was calculated (the binding force of CD44 of endothelial cells of normal arterial vessel walls to ligand/antibody is set to 1).

[2] = molecular target: T2, CD44 on the surface of macrophages inside arterial vulnerable plaques (Mus musculus, UniProt P15379); test: Binding force integration of amino fluorescein labelled ligand/antibody, flow cytometry MFI, macrophages; design: species or system mice; conditions: macrophages outside the plaque set to 1; labelled ligand/antibody 10 mg/ml, 30 minutes, 37° C.
T2 construct: from tissue; host or cells: macrophages from inside arterial vulnerable plaques of model mice
T2 sequence (P15379 23-778): T1 sequence (P15379 23-778)
Method: Intraperitoneal macrophages and macrophages inside arterial vulnerable plaques of model mice were taken, and the ligand/antibody labeled with amino fluorescein at a concentration of 10 mg/ml was added, the sample was cultured in DMEM (containing calf serum with a volume fraction of 10%, 100 U/ml penicillin, 100 U/ml streptomycin) at 37° C., in 5% CO2 incubator.

[3] = oral, clinical practice; cited from earlier work
[4] = tested on: ApoE−/− mouse model of arterial vulnerable plaque; test: In vivo therapeutic effect of LP2-(AuNP/R)-OPN on arterial vulnerable plaques (Experimental Example 5, carotid MRI); design: species or system mice; conditions: once every other day, 5 treatments, control progressed by 31.23%
Method: (§1) • (1) A normal saline solution of free rosuvastatin was prepared, and the liposome nano delivery systems loaded with CT tracer and therapeutic agent was prepared by the method described in the above Example 7. • (2) Establishment of ApoE−/− mouse model of arterial vulnerable plaque according to Experimental Example 4. • (3) Trace of vulnerable plaque in experimental animals:
(§2) Except for the control group of vulnerable plaque model, the treatment group was treated once every other day for a total of 5 treatments. For animals in each group, carotid MRI scans were performed before and after treatment to detect plaque and lumen area, and the percentage of plaque progression was calculated. Percentage of plaque progression=(plaque area after treatment−plaque area before treatment)/lumen area.

[5] = tested on: ApoE−/− mouse model of arterial vulnerable plaque; test: In vivo therapeutic effect of rosuvastatin delivery systems on arterial vulnerable plaques (Experimental Example 3, carotid MRI); design: species or system mice; conditions: once every other day, 5 treatments, control progressed by 36.23%
Method: • (1) A normal saline solution of free rosuvastatin was prepared, and the liposome nanocarrier delivery systems loaded with therapeutic agent were prepared by the method described in the above Example 1-3. • (2) Establishment of ApoE−/− mouse model of arterial vulnerable plaque:
SPF-grade ApoE−/− mice (42 mice, 5-6 weeks old, weight 20±1 g) were taken as experimental animals. The mice were fed with an adaptive high-fat diet (fat 10% (w/w), cholesterol 2% (w/w), sodium cholate 0.5% (w/w), and the rest being normal feed for mice) for 4 weeks, and then anaesthetized via intraperitoneal injection of 1% sodium pentobarbital (prepared by adding […] of sodium pentobarbital to 100 ml of normal saline) at a dose of 40 mg/kg. Then, the mice were fixed on the surgical plate in the supine position, disinfected around the neck with 75% (v/v) alcohol, the neck skin was cut longitudinally, and the anterior cervical gland was bluntly separated, and the beating left common carotid artery can be observed on the left side of the trachea. […]
as §2, with “Percentage of plaque progression=(plaque area after treatment−plaque area before treatment)/lumen area.” left out

[6] = tested on: ApoE−/− mouse model of arterial vulnerable plaque; test: In vivo therapeutic effect of atorvastatin delivery systems on arterial vulnerable plaques (Experimental Example 4, carotid MRI); design: species or system mice; conditions: once every other day, 5 treatments, control progressed by 34.87%
Method: as §2

[7] = tested on: ApoE−/− mouse model of arterial vulnerable plaque; test: In vivo radioisotopic tracing of vulnerable plaque (Experimental Example 8); design: species or system mice; conditions: tail vein, tracer 2 mSv/kg, imaging 2 hours after administration
Method: as §1, with “radioisotopic” for “CT”, “11.” for “7.”
The experimental animals were randomly divided into the following groups, 6 mice in each group: • Free F-FDG group: the dosage of F-FDG was 2 mSv/kg body weight; • LP1-(F-FDG)-OPN group: the dosage of F-FDG was 2 mSv/kg body weight; • LP1-(99mTc)-OPN group: the dosage of 99mTc was 2 mSv/kg body weight; • LP1-(I-131)-OPN group: the dosage of 1-131 was 2 mSv/kg body weight.
Animals in each experimental group were injected with the corresponding tracer through the tail vein, and radioisotopic imaging was performed before administration and 2 hours after administration to observe the identification of atherosclerotic vulnerable plaque in each group.

[8] = intragastric, 10 mg rosuvastatin per kg

Molecule | binding force integration of CD44 on the surface of endothelial cells at vulnerable plaques, relative to endothelial cells of normal arterial vessel walls [1] | binding force integration of CD44 on the surface of macrophages at vulnerable plaques, relative to macrophages outside the plaque [2] | also measured
collagen | 21 times | 38 times | 
hyaluronic acid [HA] | approximately 24 times | approximately 40 times | 
CC(C)c1nc(N(C)S(C)(=O)=O)nc(-c2ccc(F)cc2)c1/C=C/[C@@H](O)C[C@@H](O)CC(=O)O [rosuvastatin] |  |  | bioavailability when administered orally [3]: about 20%; percentage of plaque progression [4, 8]: 30.9%; percentage of plaque progression ([4]; intravenous, 0.67 mg rosuvastatin per kg): 25.34%; percentage of plaque progression [5, 8]: 33.9%; percentage of plaque progression ([5]; intravenous, 0.66 mg rosuvastatin per kg): 32.46%
CC(C)c1c(C(=O)Nc2ccccc2)c(-c2ccccc2)c(-c2ccc(F)cc2)n1CC[C@@H](O)C[C@@H](O)CC(=O)O [atorvastatin] |  |  | percentage of plaque progression ([6]; intragastric, 20 mg atorvastatin per kg): 33.21%; percentage of plaque progression ([6]; intravenous, 1.2 mg atorvastatin per kg): 32.98%
OC[C@H]1OC(O)[C@H]([18F])[C@@H](O)[C@@H]1O (stereo partly drawn) [free F-FDG, fluorine 18 (18F)-labeled fludeoxyglucose] |  |  | in vivo tracing effect on arterial vulnerable plaques (radioisotopic imaging) [7]: doesn't show any tracing effect
laminin | 16 times | 37 times | 
fibronectin | 18 times | 35 times | 
osteopontin: natural ligand for CD44 | 17 times | 33 times | 

From patent US12642875B2, “Liposomal nanocarrier delivery system for targeting active CD44 molecule, preparation method therefor, and uses thereof” (Beijing Inno Medicine Co., Ltd., priority 2018, dated 2026)
